Counter-ions that a name gives are not always drawn.
target: T1, human CTPS1 (Homo sapiens, UniProt P17812); experiment: Human CTPS1 enzyme inhibition (ADP-Glo Max assay); format: biochemical; settings: Table 17, 25° C., read-out: CTPS1 (Human CTPS1 Enzyme Inhibition data grouped by potency range)
T1 construct: purchased Proteros biostructures GmbH
T1 sequence (P17812 1-591): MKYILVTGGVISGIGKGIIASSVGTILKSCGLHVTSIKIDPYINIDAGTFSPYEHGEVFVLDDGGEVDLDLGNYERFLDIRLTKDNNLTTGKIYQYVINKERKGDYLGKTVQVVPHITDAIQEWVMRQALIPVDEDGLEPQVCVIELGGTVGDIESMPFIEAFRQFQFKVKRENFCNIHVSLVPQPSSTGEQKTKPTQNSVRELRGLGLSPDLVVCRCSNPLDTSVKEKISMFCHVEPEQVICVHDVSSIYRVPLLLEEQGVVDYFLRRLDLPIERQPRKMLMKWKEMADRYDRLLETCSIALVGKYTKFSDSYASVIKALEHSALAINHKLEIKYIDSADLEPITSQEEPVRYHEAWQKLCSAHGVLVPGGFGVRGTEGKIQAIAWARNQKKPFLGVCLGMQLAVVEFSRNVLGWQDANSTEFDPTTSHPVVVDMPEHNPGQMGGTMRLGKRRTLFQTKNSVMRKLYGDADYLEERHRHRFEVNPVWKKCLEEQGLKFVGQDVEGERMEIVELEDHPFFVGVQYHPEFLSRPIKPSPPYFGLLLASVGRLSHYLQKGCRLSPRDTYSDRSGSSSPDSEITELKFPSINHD
Description: The enzyme inhibitory activities of compounds invented against the target of interest were determined using the ADP-Glo™ Max assay (Promega, UK). Assays for human CTPS1 were performed in 1× assay buffer containing 50 mM Tris, 10 mM MgCl2, 0.01% Tween-20, pH to 8.0 accordingly. Finally, immediately before use, L-cysteine was added to the 1× assay buffer to a final concentration of 2 mM. All reagents are from Sigma-Aldrich unless specified otherwise.
3× human CTPS1 protein was prepared in 1× assay buffer to the final working protein concentration required for the reaction. A 2 uL volume per well of 3× human CTPS1 protein was mixed with 2 uL per well of 3× test compound (compound prepared in 1× assay buffer to an appropriate final 3× compound concentration respective to the concentration response curve designed for the compounds under test) for 10 minutes at 25° C. […] ADP-Glo™ Max reagent was added for 60 minutes (6 uL per well) and subsequently ADP-Glo™ Max development reagent was added for 60 minutes (12 uL per well) prior to signal detection in a microplate reader (EnVision® Multilabel Reader, Perkin Elmer). Following each reagent addition over the course of the assay, assay plates were pulse centrifuged for 30 seconds at 500 rpm.
In all cases, the enzyme converts ATP to ADP and the ADP-Glo™ Max reagent subsequently depletes any remaining endogenous ATP in the reaction system. The ADP-Glo™ Max detection reagent converts the ADP that has been enzymatically produced back into ATP and using ATP as a substrate together with luciferin for the enzyme luciferase, light is generated which produces a detectable luminescence. […] The percentage inhibition produced by each concentration of compound was calculated using the equation shown below: […]

IC50	Compound
100 to 1000 nM	CCC(C(=O)Nc1ccc(-c2ccccc2)cn1)c1csc(NS(=O)(=O)C2CC2)n1 (stereo not shown) [T181]
< 100 nM	CCOc1cncc(-c2ccc(NC(=O)C(CC)c3csc(NS(=O)(=O)C4CC4)n3)c(F)c2)c1 (stereo not shown) [T199]
< 100 nM	CCC(CC)(C(=O)Nc1ccc(-c2cncc(Cl)c2)cc1)c1csc(NS(=O)(=O)C2CC2)n1 [T120]
< 100 nM	CCC(C(=O)Nc1ccc(-c2cncc(OCC(F)(F)F)n2)cc1)c1csc(NS(=O)(=O)C2CC2)n1 (stereo not shown) [T195]
< 100 nM	CCC(C(=O)Nc1ccc(-c2cncc(C(F)(F)F)c2)cc1)c1csc(NS(=O)(=O)C2CC2)n1 (stereo not shown) [T193]
100 to 1000 nM	Cc1sc(NS(=O)(=O)C2CC2)nc1C(C)(C)C(=O)Nc1ccc(-c2cncc(Cl)c2)cc1 [T314]
< 100 nM	CC(C)(C(=O)Nc1ccc(-c2cnccn2)cc1F)c1csc(NS(=O)(=O)C2CC2)n1 [T274]
< 100 nM	CCC(C(=O)Nc1ccc(-c2cncc(F)c2)cn1)c1csc(NS(=O)(=O)C2CC2)n1 (stereo not shown) [T179]
100 to 1000 nM	CC(C)(C(=O)Nc1ccc(-c2cccc(C#N)c2)cc1)c1csc(NS(=O)(=O)C2CC2)n1 [T88]
< 100 nM	C#Cc1cncc(-c2ccc(NC(=O)C(CC)c3csc(NS(=O)(=O)C4CC4)n3)cc2)n1 (stereo not shown) [T22, 2-(2-(cyclopropanesulfonamido)thiazol-4-yl)-N-(4-(6-ethynylpyrazin-2-yl)phenyl)butanamide]
1000 to 10000 nM	O=C(Nc1ccc(-c2ccccc2)cc1)C1CCCc2sc(NS(=O)(=O)C3CC3)nc21 (stereo not shown) [T83]
< 100 nM	CCC(C(=O)Nc1ccc(-c2cncc(OC(F)F)c2)cc1F)c1csc(NS(=O)(=O)C2CC2)n1 (stereo not shown) [T209]
< 100 nM	CCC(C(=O)Nc1ccc(-c2cncc(Cl)n2)cn1)c1csc(NS(=O)(=O)C2CC2)n1 (stereo not shown) [T187]
< 100 nM	CCC(C(=O)Nc1ccc(-c2cncc(Cl)c2)cc1)c1csc(NS(=O)(=O)C2CC2)n1 (single isomer, unassigned) [T9, N-(4-(5-chloropyridin-3-yl)phenyl)-2-(2-(cyclopropanesulfonamido)thiazol-4-yl)butanamide.HCl]
100 to 1000 nM	COc1cncc(-c2ccc(NC(=O)C(C)(C)c3csc(NS(=O)(=O)C4CC4)n3)cc2)c1 [T15, 2-(2-(cyclopropanesulfonamido)thiazol-4-yl)-N-(4-(5-methoxypyridin-3-yl)phenyl)-2-methylpropanamide]
< 100 nM	CCOc1cncc(-c2cnc(NC(=O)C(CC)c3csc(NS(=O)(=O)C4CC4)n3)c(F)c2)n1 (stereo not shown) [T183]
< 100 nM	CC(C(=O)Nc1ccc(-c2cccnc2)cc1)c1csc(NS(=O)(=O)C2CC2)n1 (stereo not shown) [T102]
< 100 nM	CCC(C(=O)Nc1ccc(-c2cncc(C#N)c2)cn1)c1csc(NS(=O)(=O)C2CC2)n1 (stereo not shown) [T180]
< 100 nM	COc1cncc(-c2ccc(NC(=O)C(OC)c3csc(NS(=O)(=O)C4CC4)n3)cc2)n1 (stereo not shown) [T57]
< 100 nM	CCC(C(=O)Nc1ccc(-c2cncc(OC(C)C)n2)cn1)c1csc(NS(=O)(=O)C2CC2)n1 (stereo not shown) [T174]
< 100 nM	CCC(C(=O)Nc1ccc(-c2cncc(C(F)(F)F)n2)cn1)c1csc(NS(=O)(=O)C2CC2)n1 (stereo not shown) [T175]

same assay, conditions: Table 18, additional potency data, 25° C., read-out: CTPS1 (Human CTPS1 Enzyme Inhibition data grouped by potency range)

IC50	Compound
< 100 nM	CCNc1cncc(-c2ccc(NC(=O)C(CC)c3csc(NS(=O)(=O)C4CC4)n3)cc2)n1 (stereo not shown) [T444, 2-(2-(Cyclopropanesulfonamido)thiazol-4-yl)-N-(4-(6-(ethylamino)pyrazin-2-yl)phenyl)butanamide]
< 100 nM	CCOc1cncc(-c2ccc(NC(=O)C(OC)c3csc(NS(=O)(=O)C4CC4)n3)cc2)n1 (single isomer, unassigned) [T331, 2-(2-(cyclopropanesulfonamido)thiazol-4-yl)-N-(4-(6-ethoxypyrazin-2-yl)phenyl)-2-methoxyacetamide]
100 to 1000 nM	COc1cc(-c2cncc(Cl)c2)c(F)cc1NC(=O)C(C)(C)c1csc(NS(=O)(=O)C2CC2)n1 [T369, N-(4-(5-chloropyridin-3-yl)-5-fluoro-2-methoxyphenyl)-2-(2-(cyclopropanesulfonamido)thiazol-4-yl)-2-methylpropanamide]
< 100 nM	CCOc1cncc(-c2ccc(NC(=O)C(OC)c3csc(NS(C)(=O)=O)n3)cc2)n1 (stereo not shown) [T455]
< 100 nM	COC(C(=O)Nc1ccc(-c2cncc(C(F)(F)F)c2)cc1F)c1csc(NS(=O)(=O)C2CC2)n1 (stereo not shown) [T448]
< 100 nM	CCOc1cncc(-c2ccc(NC(=O)C(c3csc(NS(=O)(=O)C4CC4)n3)N(C)C)c(F)c2)n1 (stereo not shown) [T421, 2-(2-(Cyclopropanesulfonamido)thiazol-4-yl)-2-(dimethylamino)-N-(4-(6-ethoxypyrazin-2-yl)-2-fluorophenyl)acetamide]
< 100 nM	CCOc1cncc(-c2ccc(NC(=O)C(C)(C)c3csc(NS(=O)(=O)C4CC4)n3)c(C(C)C)c2)n1 [T362, 2-(2-(cyclopropanesulfonamido)thiazol-4-yl)-N-(4-(6-ethoxypyrazin-2-yl)-2-isopropylphenyl)-2-methylpropanamide]
< 100 nM	COC(C(=O)Nc1ccc(-c2cncc(C(F)(F)F)n2)cc1F)c1csc(NS(C)(=O)=O)n1 (stereo not shown) [T452]
< 100 nM	CCOc1cncc(-c2cnc(NC(=O)C(CC)c3csc(NS(=O)(=O)C4CC4)n3)c(C)c2)n1 (stereo not shown) [T438]
1000 to 10000 nM	CC(C)(O)c1cncc(-c2ccc(NC(=O)C(C)(C)c3csc(NS(=O)(=O)C4CC4)n3)nc2)n1 [T338, 2-(2-(cyclopropanesulfonamido)thiazol-4-yl)-N-(5-(6-(2-hydroxypropan-2-yl)pyrazin-2-yl)pyridin-2-yl)-2-methylpropanamide]
< 100 nM	O=C(Nc1ccc(-c2cncc(Cl)c2)cc1)C1(c2csc(NS(=O)(=O)C3CC3)n2)CC1 [T373, N-(4-(5-chloropyridin-3-yl)phenyl)-1-(2-(cyclopropanesulfonamido)thiazol-4-yl)cyclopropane-1-carboxamide]
1000 to 10000 nM	Cc1sc(NS(=O)(=O)C2CC2)nc1C(C)(C)C(=O)Nc1ccc(-c2cncc(C#N)c2)cc1 [T374, N-(4-(5-cyanopyridin-3-yl)phenyl)-2-(2-(cyclopropanesulfonamido)-5-methylthiazol-4-yl)-2-methylpropanamide]
< 100 nM	CCOc1cncc(-c2ccc(NC(=O)C(C)(C)c3csc(NS(=O)(=O)C4CC4)n3)nc2)n1 [T341, 2-(2-(cyclopropanesulfonamido)thiazol-4-yl)-N-(5-(6-ethoxypyrazin-2-yl)pyridin-2-yl)-2-methylpropanamide]
< 100 nM	CCOc1cncc(-c2ccc(NC(=O)C(CC)c3csc(NS(=O)(=O)C4CC4)n3)c(OC(F)(F)F)c2)n1 (stereo not shown) [T442]
100 to 1000 nM	CCC(C(=O)Nc1ccc(-c2cncc(C(F)(F)F)c2)cc1F)c1csc(NS(=O)(=O)C2CC2)n1 (single isomer, unassigned) [T415, 2-(2-(cyclopropanesulfonamido)thiazol-4-yl)-N-(2-fluoro-4-(5-(trifluoromethyl)pyridin-3-yl)phenyl)butanamide]
100 to 1000 nM	COC(C)(C)c1cncc(-c2ccc(NC(=O)C(C)(C)c3csc(NS(=O)(=O)C4CC4)n3)cc2)n1 [T375, 2-(2-(cyclopropanesulfonamido)thiazol-4-yl)-N-(4-(6-(2-methoxypropan-2-yl)pyrazin-2-yl)phenyl)-2-methylpropanamide]
100 to 1000 nM	CC(C)(C(=O)Nc1ccc(-c2cncc(C(F)(F)F)n2)cn1)c1csc(NS(=O)(=O)CC2CC2)n1 [T396, 2-(2-((cyclopropylmethyl)sulfonamido)thiazol-4-yl)-2-methyl-N-(5-(6-(trifluoromethyl)pyrazin-2-yl)pyridin-2-yl)propanamide]
100 to 1000 nM	Cc1cc(-c2cncc(Cl)c2)c(F)cc1NC(=O)C(C)(C)c1csc(NS(=O)(=O)C2CC2)n1 [T364, N-(4-(5-chloropyridin-3-yl)-5-fluoro-2-methylphenyl)-2-(2-(cyclopropanesulfonamido)thiazol-4-yl)-2-methylpropanamide]
< 100 nM	CCC(C(=O)Nc1ccc(-c2cncc(C(F)(F)F)c2)cc1F)c1csc(NS(=O)(=O)C2CC2)n1 (single isomer, unassigned) [T416, 2-(2-(cyclopropanesulfonamido)thiazol-4-yl)-N-(2-fluoro-4-(5-(trifluoromethyl)pyridin-3-yl)phenyl)butanamide]

— US11655246B2, “Aminothiazole compounds as inhibitors of CTPS1” (STEP PHARMA S.A.S., priority 2017, dated 2023)
